In BindingDB's records for doi:10.1016/j.bmcl.2003.08.082 (The University of Huddersfield, 2003):

Target: Beta-lactamase (Enterobacter cloacae, UniProt P05364)
Experiment: Inhibitor activity against Beta-lactamase, derived from the Gram negative bacteria Enterobacter cloacae at pH 7
Conditions: read-out: kon (M-1-s-1)

Sequence of Beta-lactamase (P05364 whole entry): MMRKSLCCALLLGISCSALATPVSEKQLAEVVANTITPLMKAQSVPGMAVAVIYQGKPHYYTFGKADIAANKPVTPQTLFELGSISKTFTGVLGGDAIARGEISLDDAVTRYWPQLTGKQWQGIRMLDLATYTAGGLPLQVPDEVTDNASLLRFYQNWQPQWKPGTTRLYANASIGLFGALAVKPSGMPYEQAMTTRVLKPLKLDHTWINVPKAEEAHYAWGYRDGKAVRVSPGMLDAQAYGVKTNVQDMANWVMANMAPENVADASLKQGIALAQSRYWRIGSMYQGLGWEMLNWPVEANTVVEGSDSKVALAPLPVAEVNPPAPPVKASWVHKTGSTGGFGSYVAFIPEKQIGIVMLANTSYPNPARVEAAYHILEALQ

SMILES | kon [M⁻¹ s⁻¹]
O=C(c1ccccc1)N1CCS1(=O)=O | 163
CC(C)C1CN(C(=O)c2ccccc2)S1(=O)=O (configuration not stated) | 0.07
